Test results as given in ChEMBL document CHEMBL4808240, “Design, synthesis and analysis of novel sphingosine kinase-1 inhibitors to improve oral bioavailability” (Bioorg Med Chem Lett, 2021).

Target: Sphingosine kinase 1 (Homo sapiens, UniProt Q9NYA1)
Assay: Inhibition of recombinant full length GST-tagged human SPHK1 expressed in baculovirus expression system incubated for 1 hr in presence of ATP by Alexa Fluor 647 tracer based Adapta assay

Chain of Sphingosine kinase 1 (Q9NYA1 whole entry): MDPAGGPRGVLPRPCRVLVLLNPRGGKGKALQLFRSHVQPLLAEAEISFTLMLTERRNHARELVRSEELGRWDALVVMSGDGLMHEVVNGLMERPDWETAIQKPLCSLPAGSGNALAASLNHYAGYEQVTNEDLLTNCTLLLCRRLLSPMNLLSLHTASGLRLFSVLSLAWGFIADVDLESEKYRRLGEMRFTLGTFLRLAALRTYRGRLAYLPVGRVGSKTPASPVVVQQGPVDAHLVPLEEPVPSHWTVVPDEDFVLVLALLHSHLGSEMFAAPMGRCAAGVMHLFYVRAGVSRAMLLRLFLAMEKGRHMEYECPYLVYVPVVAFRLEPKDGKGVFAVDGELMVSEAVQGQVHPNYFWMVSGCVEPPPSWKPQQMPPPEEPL

SMILES	IC50 [µM]
O=C(N/N=C/c1c(O)ccc2ccccc12)c1cc(-c2ccc3ccccc3c2)n[nH]1	> 10
O=C(N/N=C/c1cccc(O)c1)c1cc(-c2ccc3ccccc3c2)n[nH]1	> 10
O=C(N/N=C/c1ccccc1O)c1cc(-c2ccc3ccccc3c2)n[nH]1	> 10
O=C(N/N=C/c1ccc(O)cc1)c1cc(-c2ccc3ccccc3c2)n[nH]1	> 10
O=C(N/N=C/C1CCCCC1)c1cc(-c2ccc3ccccc3c2)[nH]n1	> 10
COc1cccc(/C=N/NC(=O)c2cc(-c3ccc4ccccc4c3)[nH]n2)c1	> 10
O=C(N/N=C/c1ccc(Cl)cc1)c1cc(-c2ccc3ccccc3c2)[nH]n1	> 10
COc1ccccc1/C=N/NC(=O)c1cc(-c2ccc3ccccc3c2)[nH]n1	> 10
O=C(N/N=C/c1cccc([N+](=O)[O-])c1)c1cc(-c2ccc3ccccc3c2)[nH]n1	> 10
COc1ccc(/C=N/NC(=O)c2cc(-c3ccc4ccccc4c3)[nH]n2)cc1	> 10
COc1ccc2ccccc2c1/C=N/NC(=O)c1cc(-c2ccc3ccccc3c2)[nH]n1	> 10
O=C(N/N=C/c1ccccc1)c1cc(-c2ccc3ccccc3c2)[nH]n1	> 10
O=C(N/N=C/c1cccnc1)c1cc(-c2ccc3ccccc3c2)[nH]n1	> 10
O=C(N/N=C/c1ccc2c(c1)OCCO2)c1cc(-c2ccc3ccccc3c2)[nH]n1	> 10
O=C(N/N=C/c1cccc2ccccc12)c1cc(-c2ccc3ccccc3c2)[nH]n1	> 10
COc1ccc(/C=N/NC(=O)c2cc(-c3ccc4ccccc4c3)[nH]n2)cc1OC	6.55
